Data reported in patent publication US20240254087A1, “SELECTIVE, PARTIAL, AND ARRESTIN-BIASED 5-HT2A AGONISTS WITH UTILITY IN VARIOUS DISORDERS” (Saint Joseph's University, priority 2021, published 2024).

Assays:
5-HT2A [1] = experiment: Ca2+ flux assay, 5-HT2A; assay type: cell-based, human; conditions: Gq/11 Ca2+ mobilization; higher number = skewed towards 5-HT2A
5-HT2C [2] = molecular target: T1, 5-HT2C (Homo sapiens, UniProt P28335); experiment: Competitive radioligand binding (NIMH PDSP); set-up: expressed in transfected cells
T1 sequence (P28335 33-458): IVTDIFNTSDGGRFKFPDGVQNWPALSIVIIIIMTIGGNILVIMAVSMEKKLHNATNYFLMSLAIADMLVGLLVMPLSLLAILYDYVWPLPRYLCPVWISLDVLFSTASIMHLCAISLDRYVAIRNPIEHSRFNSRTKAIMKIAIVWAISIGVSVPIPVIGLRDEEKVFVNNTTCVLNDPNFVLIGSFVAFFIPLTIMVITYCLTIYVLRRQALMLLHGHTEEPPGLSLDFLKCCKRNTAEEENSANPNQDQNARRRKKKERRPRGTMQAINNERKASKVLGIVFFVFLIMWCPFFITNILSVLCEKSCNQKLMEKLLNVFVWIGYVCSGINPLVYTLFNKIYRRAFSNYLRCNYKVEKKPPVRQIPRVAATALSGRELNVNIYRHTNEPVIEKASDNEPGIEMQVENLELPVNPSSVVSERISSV

5-HT2B [3] = molecular target: T2, 5-HT2B (Homo sapiens, UniProt P41595); experiment: Competitive radioligand binding (NIMH PDSP); set-up: expressed in transfected cells
5-HT2C [4] = molecular target: T1, 5-HT2C; experiment: Ca2+ flux assay, 5-HT2C; assay type: cell-based; set-up: expressed in transfected cells; conditions: for Emax: read-out: 5-HT2C Emax % 5-HT
5-HT2B [5] = molecular target: T2, 5-HT2B; experiment: Ca2+ flux assay, 5-HT2B; assay type: cell-based; set-up: expressed in transfected cells; conditions: Ca2+ flux; for Emax: read-out: 5-HT2B Emax % 5-HT
5-HT2A [6] = molecular target: T3, 5-HT2A (Homo sapiens, UniProt P28223); experiment: Ca2+ flux assay, 5-HT2A; assay type: cell-based; set-up: expressed in transfected cells; conditions: for Emax: read-out: 5-HT2A Emax % 5-HT, Ca2+ flux
5-HT1B = 5-HT1B (Homo sapiens, UniProt P28222); experiment: Competitive radioligand binding (NIMH PDSP)
5-HT1D = 5-HT1D (Homo sapiens, UniProt P28221); experiment: Competitive radioligand binding (NIMH PDSP)
5-HT1e = 5-HT1e (Homo sapiens, UniProt P28566); experiment: Competitive radioligand binding (NIMH PDSP)
5-HT2A [7] = molecular target: T3, 5-HT2A; experiment: Competitive radioligand binding (NIMH PDSP)
5-HT1A = molecular target: T4, 5-HT1A (Homo sapiens, UniProt P08908); experiment: Competitive radioligand binding (NIMH PDSP)
T4 sequence (P08908 1-422): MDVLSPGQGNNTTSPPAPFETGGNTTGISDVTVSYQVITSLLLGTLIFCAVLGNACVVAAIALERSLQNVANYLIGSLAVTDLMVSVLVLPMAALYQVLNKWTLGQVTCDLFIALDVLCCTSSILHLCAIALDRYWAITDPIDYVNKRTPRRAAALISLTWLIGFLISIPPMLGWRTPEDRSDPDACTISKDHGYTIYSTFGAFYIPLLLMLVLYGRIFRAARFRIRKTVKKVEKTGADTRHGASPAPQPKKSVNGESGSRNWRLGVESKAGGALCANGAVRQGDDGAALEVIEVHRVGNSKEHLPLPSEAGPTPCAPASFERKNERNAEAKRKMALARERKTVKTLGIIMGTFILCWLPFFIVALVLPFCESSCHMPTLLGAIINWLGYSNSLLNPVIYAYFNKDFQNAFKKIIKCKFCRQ

5-HT3 = molecular target: T5, 5-HT3 (Homo sapiens, UniProt P46098); experiment: Competitive radioligand binding (NIMH PDSP)
T5 sequence (P46098 24-478): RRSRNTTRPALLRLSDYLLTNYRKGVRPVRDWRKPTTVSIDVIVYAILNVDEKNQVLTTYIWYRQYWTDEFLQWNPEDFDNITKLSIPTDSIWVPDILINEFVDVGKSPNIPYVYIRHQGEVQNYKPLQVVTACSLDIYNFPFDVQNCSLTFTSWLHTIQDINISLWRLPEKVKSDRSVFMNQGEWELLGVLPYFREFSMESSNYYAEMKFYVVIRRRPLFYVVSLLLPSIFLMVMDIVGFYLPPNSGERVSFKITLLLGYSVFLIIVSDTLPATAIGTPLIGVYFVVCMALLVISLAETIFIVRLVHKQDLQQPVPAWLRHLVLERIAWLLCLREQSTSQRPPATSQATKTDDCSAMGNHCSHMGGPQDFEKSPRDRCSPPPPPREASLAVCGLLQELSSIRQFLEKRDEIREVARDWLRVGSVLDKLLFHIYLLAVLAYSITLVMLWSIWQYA
Method in brief: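 Competition binding against [3H]-ketanserin on human 5-HT2A membranes, and against the respective radioligand at the other receptors. Ki measured in triplicate after a 10,000 nM primary screen.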

T3 sequence (P28223 whole entry): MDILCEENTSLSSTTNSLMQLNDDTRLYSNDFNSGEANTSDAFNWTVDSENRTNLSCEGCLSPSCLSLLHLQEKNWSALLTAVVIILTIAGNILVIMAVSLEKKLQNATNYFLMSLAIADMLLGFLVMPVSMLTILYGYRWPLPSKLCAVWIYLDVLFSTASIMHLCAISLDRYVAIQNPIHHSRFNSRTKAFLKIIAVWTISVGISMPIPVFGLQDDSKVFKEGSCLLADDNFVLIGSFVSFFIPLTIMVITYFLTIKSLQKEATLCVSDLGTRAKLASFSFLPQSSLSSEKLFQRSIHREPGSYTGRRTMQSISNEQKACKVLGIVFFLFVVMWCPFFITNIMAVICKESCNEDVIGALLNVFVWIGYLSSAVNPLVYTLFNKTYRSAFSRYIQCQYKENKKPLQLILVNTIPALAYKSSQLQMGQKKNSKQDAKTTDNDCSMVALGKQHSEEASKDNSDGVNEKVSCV
5-HT1D, sequence (P28221 whole entry, species assumed): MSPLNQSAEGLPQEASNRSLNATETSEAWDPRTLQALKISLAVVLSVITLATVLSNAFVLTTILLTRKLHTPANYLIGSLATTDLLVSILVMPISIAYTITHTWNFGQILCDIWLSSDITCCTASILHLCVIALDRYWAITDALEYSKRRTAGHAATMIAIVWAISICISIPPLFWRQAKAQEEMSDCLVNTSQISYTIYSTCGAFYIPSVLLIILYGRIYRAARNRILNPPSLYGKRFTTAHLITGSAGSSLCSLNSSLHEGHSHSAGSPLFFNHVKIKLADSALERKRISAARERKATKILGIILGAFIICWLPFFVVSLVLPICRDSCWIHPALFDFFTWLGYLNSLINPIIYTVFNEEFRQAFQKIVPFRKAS
5-HT1e, sequence (P28566 whole entry, species assumed): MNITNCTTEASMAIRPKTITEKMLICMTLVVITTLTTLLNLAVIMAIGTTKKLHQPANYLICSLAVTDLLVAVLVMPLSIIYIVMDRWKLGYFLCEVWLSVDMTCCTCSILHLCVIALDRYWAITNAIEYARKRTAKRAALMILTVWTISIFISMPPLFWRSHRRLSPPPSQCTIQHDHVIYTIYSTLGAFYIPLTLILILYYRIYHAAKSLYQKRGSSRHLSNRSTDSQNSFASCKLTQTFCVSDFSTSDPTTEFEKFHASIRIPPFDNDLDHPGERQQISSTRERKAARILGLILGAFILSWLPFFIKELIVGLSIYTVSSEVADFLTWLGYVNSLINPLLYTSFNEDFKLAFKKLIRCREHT
T2 sequence (P41595 whole entry): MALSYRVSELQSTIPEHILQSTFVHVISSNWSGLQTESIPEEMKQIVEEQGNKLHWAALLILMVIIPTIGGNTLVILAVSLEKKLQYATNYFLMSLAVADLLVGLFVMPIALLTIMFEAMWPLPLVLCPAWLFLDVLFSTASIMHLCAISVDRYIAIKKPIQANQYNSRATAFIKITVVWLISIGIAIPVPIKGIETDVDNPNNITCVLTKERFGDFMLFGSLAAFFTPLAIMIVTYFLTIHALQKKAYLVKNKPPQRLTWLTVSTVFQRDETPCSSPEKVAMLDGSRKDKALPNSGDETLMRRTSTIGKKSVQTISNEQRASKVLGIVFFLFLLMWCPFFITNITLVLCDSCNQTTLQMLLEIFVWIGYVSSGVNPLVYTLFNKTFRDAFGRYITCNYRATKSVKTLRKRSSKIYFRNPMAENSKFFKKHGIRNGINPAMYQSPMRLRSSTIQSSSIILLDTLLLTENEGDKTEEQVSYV
5-HT1B, sequence (P28222 whole entry, species assumed): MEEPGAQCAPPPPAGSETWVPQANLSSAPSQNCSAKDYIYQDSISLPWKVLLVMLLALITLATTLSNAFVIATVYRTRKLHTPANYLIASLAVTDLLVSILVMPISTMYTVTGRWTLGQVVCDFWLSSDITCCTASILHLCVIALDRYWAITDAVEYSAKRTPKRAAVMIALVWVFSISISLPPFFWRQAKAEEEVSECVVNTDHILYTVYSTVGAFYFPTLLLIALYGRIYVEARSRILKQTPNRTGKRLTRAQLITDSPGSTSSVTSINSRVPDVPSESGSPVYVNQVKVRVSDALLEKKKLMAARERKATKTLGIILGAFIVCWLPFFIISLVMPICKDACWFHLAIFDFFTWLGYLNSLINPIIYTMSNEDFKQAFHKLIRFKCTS

Compound | 5-HT2A/5-HT2c Selectivity Factor ΔLog(Emax/EC50) (5-HT2A [1]) | Ki (5-HT2C [2]) [nM] | Ki (5-HT2B [3]) [nM] | 5-HT2C EC50, nM (5-HT2C [4]) | Emax (5-HT2C [4]) [%] | 5-HT2B EC50, nM (5-HT2B [5]) | Emax (5-HT2B [5]) [%] | 5-HT2A EC50, nM (5-HT2A [6]; Ca2+ flux) | Emax (5-HT2A [6]) [%] | Ki (5-HT1B) [nM] | Ki (5-HT1D) [nM] | Ki (5-HT1e) [nM] | Ki (5-HT2A [7]) [nM] | Ki (5-HT1A) [nM] | Ki (5-HT3) [nM] | EC50 (5-HT2C [4]; 5-HT2C (pEC50 ± SEM)) [nM] | EC50 (5-HT2C [4]; 5-HT2C EC50, nM) [nM] | EC50 (5-HT2A [6]; 5-HT2A (pEC50 ± SEM), Ca2+ flux) [nM] | EC50 (5-HT2A [6]; 5-HT2A EC50, nM, Ca2+ flux) [nM]
COc1cc([N+](=O)[O-])c(OC)cc1CCNCc1cccc2ccccc12 [25N-N-1-Nap (16), [2-(2,5-dimethoxy-4-nitrophenyl)ethyl][(naphthalen-1-yl)methyl]amine] | 5-HT2A Selective | 4.27 | 1.17 | No activity | < 10 | No activity | < 10 | No activity | < 10 | > 10000 | 871 | > 10000 | 1.15 | 240 | > 10000 | – | – | – | –
COc1cc([N+](=O)[O-])c(OC)cc1CCNCc1ccccc1OC [25N-NBOMe (4), [2-(2,5-dimethoxy-4-nitrophenyl)ethyl] [(2-methoxyphenyl)methyl]amine] | 2.4 | 6.92 | 4.47 | – | 102 ± 1 | No activity | < 10 | – | 94 | > 10000 | 5620 | > 10000 | 0.55 | 1860 | > 10000 | 0.851 | 0.84 | 0.316 | –
COc1cc([N+](=O)[O-])c(OC)cc1CCNCc1cccc(O)c1 [25N-NB-3-OH (21), 3-({[2-(2,5-dimethoxy-4-nitrophenyl)ethyl]amino}methyl)phenol] | 92.6 | 83.2 | 35.5 | – | 53 ± 4 | No activity | < 10 | – | 55 ± 2 | > 10000 | > 10000 | > 10000 | 14.5 | 1860 | > 10000 | – | 49.1 | – | 3.32
